Reference: patent US10716773B2, “Compositions comprising 15-HEPE and methods of treating or preventing cancer and neurologic disease” (Afimmune Limited, priority 2015, dated 2020)
Several values for one entry are separate records, joined by “and”; a condition that tells them apart may be missing. Identical values can stand only once.

Legend:
[1] = system: normal human dermal fibroblasts (NHDF); assay: MTT reduction assay and observation of the cell layers: viability of fibroblasts after 48 hours of incubation; type: cell-based; details: for Visability (%): single replicates
Experimental: Normal human dermal fibroblasts (NHDF) were used at the 8th passage. Cells were cultured at 37° C., 5% CO2 in DMEM supplemented with L-glutamine 2 mM, 50 U/ml Penicillin, 50 μg/ml Streptomycin and 10% Foetal calf serum (FCS).

[2] = system: caspase-3/7; assay: Staurosporine-induced caspase-3/7 activity in NHDF, measured in cell lysates with fluorogenic substrate Ac-DEVD-AMC; type: cell-based, human; details: staurosporine-stimulated NHDF; for Caspase-3/7 activity (Fluorescence 380 nm/440 nm) / Caspase-3/7 activity - Background (Fluorescence 380 nm/440 nm) / Caspese-3/7 activity/proteins: single replicates, listed as 16(8)-HE PE EE
Experimental: The potential inhibitory effect of compounds 15(S)-HEPE EE and EPA EE was evaluated on staurosporine-induced caspase activation in normal human dermal fibroblasts (NHDF). […] Normal human dermal fibroblasts (NHDF) were used at the 8th passage. […] Fibroblasts were seeded in 24-well plates and cultured for 24 hours in culture medium. The medium was then removed and replaced by assay medium containing or not (control) the test compounds and cells were pre-incubated for 24 hours. […] The cells were then incubated for 24 hours. Non-stimulated controls (without inducer) were performed in parallel. All experimental conditions were performed in n=3. […] Enzyme activity assay and protein quantification assay were performed in separated plates due to the fact that DTT used in the lysis buffer for caspase activity interferes with protein quantification. […] Lysis buffer: HEPES buffer (pH 7.4) containing EDTA, Triton X-100, NP-40 and DTT Assay Buffer: HEPES buffer (pH 7.4) containing NaCl, EDTA, NP-40, glycerol and DTT Substrate: Ac-DEVD-AMC, tested at 10 μM (stock solution at 1.5 mM in DMSO) Reference inhibitor: […] Ac-DEVD-AMC is a synthetic tetrapeptide fluorogenic substrate for caspase-3 and caspase-7 and contains the amino acid sequence of the PARP cleavage site at […]. […] Enzymes cleave the tetrapeptide between D and AMC resulting in the release of fluorogenic AMC, which can be quantified with a spectrofluorometer. […] In parallel, an additional control (assay buffer containing the substrate) was also performed to determine the background signal. At the end of incubation, the fluorescence intensity emitted by the reaction product (cleaved Ac-DEVD-AMC) was measured at wavelengths λex 380 nm and λem 440 nm using a spectrofluorimeter (SPECTRAmax® Gemini, Molecular Devices).

Structure (SMILES): CC/C=C\C[C@H](O)/C=C/C=C\C/C=C\C/C=C\CCCC(=O)OCC [15(S)-HEPE EE]
- Visability (%) Mean ([1]; 0.001 μg/ml): 98%
- Visability (%) ([1]; 0.001 μg/ml): 99% and 97% and 98%
- Visability (%) Mean ([1]; 0.01 μg/ml): 96%
- Visability (%) ([1]; 0.01 μg/ml): 90% and 100% and 98%
- Visability (%) Mean ([1]; 0.1 μg/ml): 97%
- Visability (%) ([1]; 0.1 μg/ml): 99% and 96% and 98%
- Visability (%) Mean ([1]; 1 μg/ml): 97%
- Visability (%) ([1]; 1 μg/ml): 96% (2×) and 97%
- Visability (%) Mean ([1]; 10 μg/ml): 101%
- Visability (%) ([1]; 10 μg/ml): 100% and 102% and 101%
- Visability (%) Mean ([1]; 30 μg/ml): 99%
- Visability (%) ([1]; 30 μg/ml): 103% and 98% and 96%
- Visability (%) Mean ([1]; 100 μg/ml): 104%
- Visability (%) ([1]; 100 μg/ml): 103% and 105% and 104%
- Visability (%) Mean ([1]; 300 μg/ml): 100%
- Visability (%) ([1]; 300 μg/ml): 98% and 105% and 97%
- % inhibition ([2]; 0.001 μg/ml): −37%
- % stimulated control ([2]; 0.001 μg/ml): 134%
- Normalized data: Mean (caspase-3/7 activity/proteins) ([2]; 0.001 μg/ml): 114767 AU/mg
- Caspase-3/7 activity (Fluorescence 380 nm/440 nm) ([2]; 0.001 μg/ml): 1809 AU and 1753 AU and 1686 AU
- Caspase-3/7 activity - Background (Fluorescence 380 nm/440 nm) ([2]; 0.001 μg/ml): 1479 AU and 1423 AU and 1396 AU
- Caspese-3/7 activity/proteins ([2]; 0.001 μg/ml): 109076 AU/mg and 129611 AU/mg and 105615 AU/mg
- % inhibition ([2]; 0.01 μg/ml): −6%
- % stimulated control ([2]; 0.01 μg/ml): 106%
- Normalized data: Mean (caspase-3/7 activity/proteins) ([2]; 0.01 μg/ml): 90306 AU/mg
- Caspase-3/7 activity (Fluorescence 380 nm/440 nm) ([2]; 0.01 μg/ml): 1495 AU and 1587 AU and 1789 AU
- Caspase-3/7 activity - Background (Fluorescence 380 nm/440 nm) ([2]; 0.01 μg/ml): 1166 AU and 1258 AU and 1459 AU
- Caspese-3/7 activity/proteins ([2]; 0.01 μg/ml): 81085 AU/mg and 89757 AU/mg and 100075 AU/mg
- % inhibition ([2]; 0.1 μg/ml): 4%
- % stimulated control ([2]; 0.1 μg/ml): 98%
- Normalized data: Mean (caspase-3/7 activity/proteins) ([2]; 0.1 μg/ml): 82485 AU/mg
- Caspase-3/7 activity (Fluorescence 380 nm/440 nm) ([2]; 0.1 μg/ml): 1468 AU and 1697 AU and 1154 AU
- Caspase-3/7 activity - Background (Fluorescence 380 nm/440 nm) ([2]; 0.1 μg/ml): 1139 AU and 1367 AU and 825 AU
- Caspese-3/7 activity/proteins ([2]; 0.1 μg/ml): 81102 AU/mg and 109799 AU/mg and 56654 AU/mg
- % inhibition ([2]; 1 μg/ml): −9%
- % stimulated control ([2]; 1 μg/ml): 108%
- Normalized data: Mean (caspase-3/7 activity/proteins) ([2]; 1 μg/ml): 93200 AU/mg
- Caspase-3/7 activity (Fluorescence 380 nm/440 nm) ([2]; 1 μg/ml): 1536 AU and 1600 AU and 1735 AU
- Caspase-3/7 activity - Background (Fluorescence 380 nm/440 nm) ([2]; 1 μg/ml): 1206 AU and 1270 AU and 1406 AU
- Caspese-3/7 activity/proteins ([2]; 1 μg/ml): 86474 AU/mg and 94481 AU/mg and 93645 AU/mg
- % inhibition ([2]; 10 μg/ml): 8%
- % stimulated control ([2]; 10 μg/ml): 93%
- Normalized data: Mean (caspase-3/7 activity/proteins) ([2]; 10 μg/ml): 80078 AU/mg
- Caspase-3/7 activity (Fluorescence 380 nm/440 nm) ([2]; 10 μg/ml): 1439 AU and 1551 AU and 1514 AU
- Caspase-3/7 activity - Background (Fluorescence 380 nm/440 nm) ([2]; 10 μg/ml): 1109 AU and 1221 AU and 1184 AU
- Caspese-3/7 activity/proteins ([2]; 10 μg/ml): 76241 AU/mg and 81395 AU/mg and 82597 AU/mg
- % inhibition ([2]; 100 μg/ml): 83%
- % stimulated control ([2]; 100 μg/ml): 26%
- Normalized data: Mean (caspase-3/7 activity/proteins) ([2]; 100 μg/ml): 21632 AU/mg
- effect on caspase-3/7 activity (in words) ([2]; 100 μg/ml): clear inhibitory effect
- Caspase-3/7 activity (Fluorescence 380 nm/440 nm) ([2]; 100 μg/ml): 663 AU and 729 AU and 660 AU
- Caspase-3/7 activity - Background (Fluorescence 380 nm/440 nm) ([2]; 100 μg/ml): 324 AU and 400 AU and 320 AU
- Caspese-3/7 activity/proteins ([2]; 100 μg/ml): 15788 AU/mg and 15464 AU/mg and 19643 AU/mg
- effect on caspase-3/7 activity (in words) ([2]; tested from 0.001 to 10 μg/ml): no effect
